# Measurements reported in patent US10654876B2, “TH-302 solid forms and methods related thereto” (Molecular Templates, Inc., priority 2014, dated 2020).
# Key:
# [1] = Stability of crystalline form A to relative humidity; format: physicochemical; details: 15% relative humidity (RH) at 25° C.; anhydrous crystalline form A
# Method: (§1) Crystalline form A of TH-302 is anhydrous which is stable to 15% relative humidity (RH) at 25° C. No change in the chemical purity of TH-302 was observed after one week when in accelerated stability tests at high temperature (40° C.) and high relative humidity (75% RH). An improvement in the physical appearance of a dosage form of a drug enhances both physician and patient acceptance and increases the likelihood of success of the treatment.
# [2] = Accelerated stability test at high temperature and high relative humidity; format: physicochemical; details: 40° C., 75% RH, after one week
# Method: as §1
smiles,measurement,setting,value
"Cn1c(COP(=O)(NCCBr)NCCBr)cnc1[N+](=O)[O-] [TH-302, N,N′-Bis(2-bromoethyl)phosphorodiamidic acid (1-methyl-2-nitro-1H-imidazol-5-yl)methyl ester]",stability to relative humidity,[1],stable
same,change in the chemical purity,[2],No change
